Reference: patent US4619932A, “Novel carbostyril derivatives, process for producing thereof and pharmaceutical composition containing the same” (Otsuka Pharmaceutical Co., Ltd., priority 1980, dated 1986)
Where a name gives a salt, the structure may show the parent alone. Read-outs that look alike come from different tables or passages of the source.

Key:
[1] = biological target: retraction of ileum caused by histamine (Cavia porcellus, UniProt P31389); assay: Antihistaminic activity test in vitro, enucleated ileum of guinea pig; parameters: species or system guinea pig (male)
Chain of retraction of ileum caused by histamine (P31389 whole entry): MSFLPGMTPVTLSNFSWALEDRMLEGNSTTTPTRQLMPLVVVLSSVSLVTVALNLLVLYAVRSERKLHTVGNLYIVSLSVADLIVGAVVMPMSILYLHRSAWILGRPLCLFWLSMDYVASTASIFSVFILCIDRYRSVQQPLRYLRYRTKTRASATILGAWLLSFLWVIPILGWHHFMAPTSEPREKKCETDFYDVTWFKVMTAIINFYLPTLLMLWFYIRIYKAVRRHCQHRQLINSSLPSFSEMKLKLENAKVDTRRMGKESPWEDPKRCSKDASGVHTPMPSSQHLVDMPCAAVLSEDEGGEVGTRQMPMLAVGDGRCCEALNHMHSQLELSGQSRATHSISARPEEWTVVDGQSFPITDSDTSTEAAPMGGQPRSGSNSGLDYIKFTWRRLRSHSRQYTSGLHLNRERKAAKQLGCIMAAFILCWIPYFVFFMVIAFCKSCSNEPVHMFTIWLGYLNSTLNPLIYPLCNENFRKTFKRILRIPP
Text: (E) Antihistaminic activity test
As to the test method for determining antihistaminic activity of a compound in vitro, a method of using an enucleated ileum of a guinea pig is generally accepted. Antihistaminic activity of the present compounds was conduted according to said method as follows:
A male guinea pig having 300 to 500 g body weight was killed by blood letting. An ileum having length of 15 cm being enucleated from the ileocecal region was dipped into Tyrode's solution (which was prepared from 8.0 g of NaCl, 0.2 g of KCl, 0.2 g of CaCl2, 1.0 g of glucose, 1.0 g of NaHCO3, 0.065 g of NaHPO4.2H2 O and 0.2135 g of MgCl2.6H2 O make 1000 ml in total volume by adding water). Then the tissue of ileum was cut to a length of 2.5 to 3.0 cm and suspended in an organ bath filled with 30 ml of Tyrode's solution. The organ bath was kept a temperature of 36° C. and blowing a mixed gas consisting of 5% of CO2 and 95% of O2 into the bath. 10 Minutes after the blowing, 10^-6M of histamine was added to the bath to examine the sensitivity of the tissue and a reaction curve (control) with respect to the dosage of histamine was obtained. After the dosage of histamine-reaction curve (control) become constant 10^-6 g/ml of a compound to be tested was added to the bath and further histamine was added 5 minutes later to obtain dosage-reaction curve. Retraction of the isotonic was recorded on a pen-recorder through an isotonic transducer (TD-112S manufactured by Nihon Koden). Antihistaminc activity of the test compound was determined as pA2 value by "Van Rossam" method (J. M. Van Rossam: Arch. Inst. Pharmacodyn. Ther., 143, 299 (1963)) in terms of that the maximum retraction of ileum caused by histamine shown in the control curve is 100%.

[2] = test system: male rats; conditions: rat, in vivo, po
Experimental: Each of the following compound of the general formula in the present invention was administered orally to male rats to determine the acute toxicity (LD50 mg/kg).

[3] = test system: epinephrine; assay: Activity for antagonizing epinephrine in mouse; format: in vivo, mouse (male, ddy strain); conditions: oral, 1 hour before epinephrine 40 mg/kg i.p., survival at 24 hours, read-out: ED50 value, dose allowing half the animals to survive
Experimental: (C) Activity for antagonizing epinephrine in mouse
Individual male mice of ddy strain having 17 to 20 g of body weight were used. The mice were abstained from eating for 24 hours. One test group consist of 10 mice. A compound to be tested was administered orally. One hour after the administration, 40 mg/kg of epinephrine was intraperitonerally administered. […] All of 10 mice administered physiological saline solution as the reference group were dead within a few minutes after the administration of epinephrine. (Cf. Loew, E. R. and Micetich, A., J. Pharmacol. Exp. Ther., 93, 434-443 (1948)).

[4] = test system: jumping behavior induced by Methamphetamine and L-DOPA; assay: Activity for inhibiting jumping behavior in mouse induced by Methamphetamine and L-DOPA; format: in vivo, mouse (male, ddy-strain); conditions: oral, Methamphetamine 4 mg/kg i.p. and L-DOPA 400 mg/kg i.p., positive = 10 or fewer jumps, read-out: ED50 value, inhibition of jumping behavior
Experimental: (B) Activity for inhibiting jumping behavior in mouse induced by Methamphetamine and L-DOPA
Individual male mice of ddy-strain having a body weight of 17 to 25 g were used. The mice were not fed for 24 hours. One test group consisted of 6 mice. A compound to be tested was administered orally. 40Minutes after the administration 4 mg/kg of Methamphetamine d-N-α-dimethylphenthylamine was intraperitonerally administered, further 15 minutes after the administration of Methamphetamine, 400 mg/kg of L-DOPA was intraperitonerally administered. 60 Minutes after the administration of L-DOPA, (3-(3,4-dihydroxyphenyl)alanine) the mouse was placed in a glass beaker of 2 liters capacity, and the number of jumping of the mouse was recorded. The activity for inhibiting jumping behavior of the test compound was determined as positive in case of number of jumping performed by the administered mouse counted 10 or less. While, the activity for inhibiting jumping behabior of the test compound was determined as negative in case the number of jumping performed by the administered mouse recorded over 10. The effective dosage (ED50 value: mg/kg) of the test compound which gives 3 mice were positive over 6 mice of one test group was calculated. The number of jumping performed by the mouse being administered with physiological saline solution as the reference was 150 to 200 per hour. (Cf. H. Lal, F. C. Colpaert, P. Laduron: European J. Pharmacol., 30, 113-116 (1975)).

[5] = test system: palpebral ptosis; assay: Palpebral ptosis test in mouse; format: in vivo, mouse (male, ddy-strain); conditions: 64 mg/kg oral, 1 hour; score 0 (wide open eyes) to 8 (eyes completely closed); mean of 10 mice
Experimental: (D) Activity of palpebral ptosis test in mouse
Individual male mice of ddy-strain having 18 to 20 g of body weight were used. The mice were abstained from eating for 24 hours. One test group consists of 10 mice. […] One hour after the administration, the state of palpebral ptosis of the mouse were observed and evaluated on the basis of the following score system. The mean value was calculated from the scores of 10 mice.
Score Degree of palpebral ptosis
8 Eyes completely closed.

[6] = test system: Halothane anesthesia; assay: Halothane anesthesia increasing activity; format: in vivo, mouse (male, ddy-strain); conditions: 16 mg/kg oral, 1 hour before 4% Halothane for 3 minutes; righting reflex
Experimental: Male mice of ddy-strain a having about 20 g body weight were used. One test group consists of 10 mice. An aqueous Gummi Arabicum suspension of test compound (80 mg of a compound to be tested and 1 g of Gummi Arabicum/100 ml of physiological NaCl solution) was administered orally to each mouse at the dosage of 16 mg of test compound/kg body. One hour after the administration, each mouse was placed in gas respiration chamber (13×13×24 cm) and oxygen gas containing 4% of Halothane (2-brome-2-chloro-1,1,1-trifluoroethane) was flown into the chamber at the velocity of 2/min for 3 minutes. A mouse anaesthetized was taken out from the chamber and the time between the introduction of anesthesia to waking was measured by righting reflex as the index. To mice of control group, 1% Gummi Arabicum aqueous physiological solution was orally administered at the dosage of 0.1 ml/kg body.

[7] = 10^-6 g/ml test compound, histamine, Tyrode's solution, 36° C., Van Rossam method, read-out: pA2 (converted)

| SMILES | Kb [1, 7] [nM] | Acute toxicity (LD50) [2] [mg/kg] | also measured |
| --- | --- | --- | --- |
| Cc1cccc(N2CCN(CC=Cc3ccc4c(c3)CCC(=O)N4Cc3ccccc3)CC2)c1 [Compound 21, 1-Benzyl-6-{3-[4-(3-methylphenyl)-1-piperazinyl]-1-propenyl}-3,4-dihydrocarbostyril monooxalate] | 49 | – | – |
| Cc1ccc(C2=CCN(CC=Cc3ccc4c(c3)CCC(=O)N4)CC2)cc1 [Compound 23, 6-{3-[4-(4-Methylphenyl)-1,2,5,6-tetrahydropyridyl]-1-propenyl}-3,4-dihydrocarbostyril] | – | 500 | Kb [1]: 15.5 nM |
| O=C1CCc2cc(C(=O)CCN3CCC(Cc4ccccc4)CC3)ccc2N1 [Compound 24] | 58.9 | 500 | – |
| O=C1CCc2c(CCCN3CCN(c4ccccc4)CC3)cccc2N1 [Compound 22, 5-[3-(4-Phenyl-1-piperazinyl)propyl]-3,4-dihydrocarbostyril] | 97.7 | 500 | – |
| CN1C(=O)CCc2cc(C(=O)CCN3CCN(c4ccccc4)CC3)ccc21 [Compound 20, 1-Methyl-6-[1-oxo-3-(4-phenyl-1-piperazinyl)propyl]-3,4-dihydrocarbostyril.monooxalate] | 26.3 | 500 | – |
| O=C1CCc2cc(C(=O)CCCN3CCN(c4ccccc4Cl)CC3)ccc2N1 [Compound 3, 6-{1-Oxo-4-[4-(2-chlorophenyl)-1-piperazinyl]butyl}-3,4-dihydrocarbostyril.monohydrochloride.monohydrate] | – | 500 | ED50 [3]: 6.12 mg/kg; ED50 [4]: 1.05 mg/kg; Score obtained (Mean value), degree of palpebral ptosis [5]: 2.0; Time (minutes) between introduction of anesthesia to waking [6]: 8.0 min |
